According to patent publication US8771744B2, “Barrier composition” (Prosonix Limited, priority 2009, dated 2014):
Where a name gives a salt, the structure may show the parent alone.

Experiment: Particle size distribution (Sympatec) of spray dried, ultrasound treated particles
Assay type: physicochemical
Text: Preferably the active particles of the invention have a volume diameter of less than 10 μm, more preferably at least 90 wt % of the active ingredient particles in a given composition have a diameter equal to or lower than 10 μm as determined by measuring the characteristic equivalent sphere diameter, known as volume diameter, by laser diffraction as described above, preferably using a Malvern or equivalent apparatus. The parameters taken into consideration are the volume diameters (VD) in microns of 10%, 50% and 90% of the particles expressed as d(10), d(50) and d(90), respectively, which correspond to the mass diameter assuming a size independent density for the particles.
Fenoterol hydrobromide (5 g) was dissolved in 100 mL of methanol. The samples of Fenoterol hydrobromide powder collected in the ultrasonic chamber were produced using a Büchi-290 laboratory-scale spray dryer (Büchi, Switzerland). The solution was atomized using nitrogen at 7 bar flowing at approximately at 10 Lpm (Liter/minute). The aspirator was set at 100% and flow rate of solution was set to […]. The gas temperature was set to 120° C. Fenoterol hydrobromide particles were collected from both the cyclone separator and the PTFE bag filter assembly. The resultant amorphous particles contained 3000 ppm (0.3% w/w) residual methanol. The particles were placed into an ultrasonic chamber fitted with a 20 kHz ultrasonic transducer on its base (Prosonix SL 10) as shown in FIG. 8. The chamber was heated to 40° C. using a thermoregulated water jacket. Ultrasound at 20 W power was applied between 30 minutes and 2 hour. The resulting particles were characterized by optical microscopy and DSC (Differential Scanning Calorimetry). The size of the particles were typically in the range of 1-7 μm. In this specific example d(10)=0.91 μm; d(50)=1.76 μm; d(90)=3.38 μm (see FIG. 4).

[1] = spray dried particles after dry powder ultrasound treatment, FIG. 4

SMILES: CC(Cc1ccc(O)cc1)NCC(O)c1cc(O)cc(O)c1 (stereo not shown) [Fenoterol hydrobromide]
- size of the particles (spray dried particles after dry powder ultrasound treatment (20 kHz, 20 W, 40° C., 30 minutes to 2 hour), typical range): 1-7 μm
- d(10) [1]: 0.91 μm
- d(50) [1]: 1.76 μm
- d(90) [1]: 3.38 μm
